Laboratory results as given in PubChem BioAssay (NCI).
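Values below derive from 48-hour exposures of cells grown in 96-well plates, with endpoints linearly interpolated between the two concentrations bracketing the appropriate inhibition level. At the TGI there is no net growth.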

Experiments:
Assay in all cases: inhibition of tumour cell growth, NCI panel, 48 h
786-0 renal = system: 786-0 renal
A498 renal = system: A498 renal
A549 NSCLC = system: A549 NSCLC
ACHN renal = system: ACHN renal
BT-549 breast = system: BT-549 breast
CAKI-1 renal = system: CAKI-1 renal
CCRF-CEM leukemia = system: CCRF-CEM leukemia
COLO 205 colon = system: COLO 205 colon
DU-145 prostate = system: DU-145 prostate
EKVX NSCLC = system: EKVX NSCLC
HCC-2998 colon = system: HCC-2998 colon
HCT-116 colon = system: HCT-116 colon
HCT-15 colon = system: HCT-15 colon
HL-60(TB) leukemia = system: HL-60(TB) leukemia
HOP-62 NSCLC = system: HOP-62 NSCLC
HOP-92 NSCLC = system: HOP-92 NSCLC
HS 578T breast = system: HS 578T breast
HT29 colon = system: HT29 colon
IGROV1 ovarian = system: IGROV1 ovarian
K-562 leukemia = system: K-562 leukemia
KM12 colon = system: KM12 colon
LOX IMVI melanoma = system: LOX IMVI melanoma
M14 melanoma = system: M14 melanoma
MALME-3M melanoma = system: MALME-3M melanoma
MCF7 breast = system: MCF7 breast
MDA-MB-231 breast = system: MDA-MB-231 breast
MDA-MB-435 = system: MDA-MB-435
MDA-N = system: MDA-N
MOLT-4 leukemia = system: MOLT-4 leukemia
NCI-H226 lung = system: NCI-H226 lung
NCI-H23 lung = system: NCI-H23 lung
NCI-H460 lung = system: NCI-H460 lung
NCI-H522 lung = system: NCI-H522 lung
NCI/ADR-RES ovarian = system: NCI/ADR-RES ovarian
OVCAR-3 ovarian = system: OVCAR-3 ovarian
OVCAR-4 ovarian = system: OVCAR-4 ovarian
OVCAR-5 ovarian = system: OVCAR-5 ovarian
OVCAR-8 ovarian = system: OVCAR-8 ovarian
PC-3 prostate = system: PC-3 prostate
RPMI-8226 leukemia = system: RPMI-8226 leukemia
RXF 393 renal = system: RXF 393 renal
SF-268 CNS = system: SF-268 CNS
SF-295 CNS = system: SF-295 CNS
SF-539 CNS = system: SF-539 CNS
SK-MEL-2 melanoma = system: SK-MEL-2 melanoma
SK-MEL-28 melanoma = system: SK-MEL-28 melanoma
SK-MEL-5 melanoma = system: SK-MEL-5 melanoma
SK-OV-3 ovarian = system: SK-OV-3 ovarian
SN12C renal = system: SN12C renal
SNB-19 CNS = system: SNB-19 CNS
SNB-75 CNS = system: SNB-75 CNS
SR leukemia = system: SR leukemia
SW-620 colon = system: SW-620 colon
T-47D breast = system: T-47D breast
TK-10 renal = system: TK-10 renal
U251 CNS = system: U251 CNS
UACC-257 melanoma = system: UACC-257 melanoma
UACC-62 melanoma = system: UACC-62 melanoma
UO-31 renal = system: UO-31 renal

CC1(C)CCCC2OC2CCC(C)(C)C1=O (stereo unspecified)
TGI (786-0 renal): > 100 µM
TGI (A498 renal): > 100 µM
TGI (A549 NSCLC): > 100 µM
TGI (ACHN renal): > 100 µM
TGI (BT-549 breast): > 100 µM
TGI (CAKI-1 renal): > 100 µM
TGI (CCRF-CEM leukemia): > 100 µM
TGI (COLO 205 colon): > 100 µM
TGI (DU-145 prostate): > 100 µM
TGI (EKVX NSCLC): > 100 µM
TGI (HCC-2998 colon): > 100 µM
TGI (HCT-116 colon): > 100 µM
TGI (HCT-15 colon): > 100 µM
TGI (HL-60(TB) leukemia): > 100 µM
TGI (HOP-62 NSCLC): > 100 µM
TGI (HOP-92 NSCLC): > 100 µM
TGI (HS 578T breast): > 100 µM
TGI (HT29 colon): > 100 µM
TGI (IGROV1 ovarian): > 100 µM
TGI (K-562 leukemia): > 100 µM
TGI (KM12 colon): > 100 µM
TGI (LOX IMVI melanoma): > 100 µM
TGI (M14 melanoma): > 100 µM
TGI (MALME-3M melanoma): > 100 µM
TGI (MCF7 breast): > 100 µM
TGI (MDA-MB-231 breast): > 100 µM
TGI (MDA-MB-435): > 100 µM
TGI (MDA-N): > 100 µM
TGI (MOLT-4 leukemia): > 100 µM
TGI (NCI-H226 lung): > 100 µM
TGI (NCI-H23 lung): > 100 µM
TGI (NCI-H460 lung): > 100 µM
TGI (NCI-H522 lung): > 100 µM
TGI (NCI/ADR-RES ovarian): > 100 µM
TGI (OVCAR-3 ovarian): > 100 µM
TGI (OVCAR-4 ovarian): > 100 µM
TGI (OVCAR-5 ovarian): > 100 µM
TGI (OVCAR-8 ovarian): > 100 µM
TGI (PC-3 prostate): > 100 µM
TGI (RPMI-8226 leukemia): > 100 µM
TGI (RXF 393 renal): > 100 µM
TGI (SF-268 CNS): > 100 µM
TGI (SF-295 CNS): > 100 µM
TGI (SF-539 CNS): > 100 µM
TGI (SK-MEL-2 melanoma): > 100 µM
TGI (SK-MEL-28 melanoma): > 100 µM
TGI (SK-MEL-5 melanoma): > 100 µM
TGI (SK-OV-3 ovarian): > 100 µM
TGI (SN12C renal): > 100 µM
TGI (SNB-19 CNS): > 100 µM
TGI (SNB-75 CNS): > 100 µM
TGI (SR leukemia): > 100 µM
TGI (SW-620 colon): > 100 µM
TGI (T-47D breast): > 100 µM
TGI (TK-10 renal): > 100 µM
TGI (U251 CNS): > 100 µM
TGI (UACC-257 melanoma): > 100 µM
TGI (UACC-62 melanoma): > 100 µM
TGI (UO-31 renal): > 100 µM

CCN(CCCN(CC)C(=O)Nc1c(C)cccc1C)C(=O)Nc1c(C)cccc1C
TGI (786-0 renal): > 100 µM
TGI (A498 renal): > 100 µM
TGI (A549 NSCLC): > 100 µM
TGI (ACHN renal): > 100 µM
TGI (BT-549 breast): > 100 µM
TGI (CAKI-1 renal): > 100 µM
TGI (COLO 205 colon): > 100 µM
TGI (DU-145 prostate): > 100 µM
TGI (EKVX NSCLC): > 100 µM
TGI (HCC-2998 colon): > 100 µM
TGI (HCT-116 colon): > 100 µM
TGI (HCT-15 colon): > 100 µM
TGI (HOP-62 NSCLC): > 100 µM
TGI (HOP-92 NSCLC): > 100 µM
TGI (HS 578T breast): > 100 µM
TGI (HT29 colon): > 100 µM
TGI (IGROV1 ovarian): > 100 µM
TGI (K-562 leukemia): > 100 µM
TGI (KM12 colon): > 100 µM
TGI (LOX IMVI melanoma): > 100 µM
TGI (M14 melanoma): > 100 µM
TGI (MALME-3M melanoma): > 100 µM
TGI (MCF7 breast): > 100 µM
TGI (MDA-MB-231 breast): > 100 µM
TGI (MDA-MB-435): > 100 µM
TGI (MDA-N): > 100 µM
TGI (MOLT-4 leukemia): > 100 µM
TGI (NCI-H226 lung): > 100 µM
TGI (NCI-H23 lung): > 100 µM
TGI (NCI-H460 lung): > 100 µM
TGI (NCI-H522 lung): > 100 µM
TGI (NCI/ADR-RES ovarian): > 100 µM
TGI (OVCAR-4 ovarian): > 100 µM
TGI (OVCAR-5 ovarian): > 100 µM
TGI (OVCAR-8 ovarian): > 100 µM
TGI (PC-3 prostate): > 100 µM
TGI (RPMI-8226 leukemia): > 100 µM
TGI (RXF 393 renal): > 100 µM
TGI (SF-268 CNS): > 100 µM
TGI (SF-295 CNS): > 100 µM
TGI (SK-MEL-2 melanoma): > 100 µM
TGI (SK-MEL-28 melanoma): > 100 µM
TGI (SK-MEL-5 melanoma): > 100 µM
TGI (SK-OV-3 ovarian): > 100 µM
TGI (SN12C renal): > 100 µM
TGI (SNB-19 CNS): > 100 µM
TGI (SNB-75 CNS): > 100 µM
TGI (SW-620 colon): > 100 µM
TGI (T-47D breast): > 100 µM
TGI (TK-10 renal): > 100 µM
TGI (U251 CNS): > 100 µM
TGI (UACC-257 melanoma): > 100 µM
TGI (UACC-62 melanoma): > 100 µM
TGI (UO-31 renal): > 100 µM

NS(=O)(=O)c1cc(Br)c(N=Nc2ccc(O)c3ncccc23)c(Br)c1
TGI (786-0 renal): > 100 µM
TGI (A498 renal): 67.9 µM
TGI (A549 NSCLC): 60.7 µM
TGI (ACHN renal): 43.9 µM
TGI (BT-549 breast): > 100 µM
TGI (CAKI-1 renal): > 100 µM
TGI (CCRF-CEM leukemia): 6.74 µM
TGI (COLO 205 colon): > 100 µM
TGI (DU-145 prostate): > 100 µM
TGI (EKVX NSCLC): > 100 µM
TGI (HCT-116 colon): > 100 µM
TGI (HCT-15 colon): > 100 µM
TGI (HL-60(TB) leukemia): 29.4 µM
TGI (HOP-62 NSCLC): > 100 µM
TGI (HOP-92 NSCLC): > 100 µM
TGI (HS 578T breast): 78.5 µM
TGI (HT29 colon): > 100 µM
TGI (IGROV1 ovarian): > 100 µM
TGI (K-562 leukemia): > 100 µM
TGI (KM12 colon): > 100 µM
TGI (LOX IMVI melanoma): > 100 µM
TGI (M14 melanoma): 76.8 µM
TGI (MALME-3M melanoma): 79.6 µM
TGI (MCF7 breast): 38.5 µM
TGI (MDA-MB-231 breast): > 100 µM
TGI (MDA-MB-435): > 100 µM
TGI (MDA-N): > 100 µM
TGI (MOLT-4 leukemia): > 100 µM
TGI (NCI-H226 lung): > 100 µM
TGI (NCI-H23 lung): > 100 µM
TGI (NCI-H460 lung): > 100 µM
TGI (NCI-H522 lung): > 100 µM
TGI (NCI/ADR-RES ovarian): 65.5 µM
TGI (OVCAR-3 ovarian): > 100 µM
TGI (OVCAR-4 ovarian): > 100 µM
TGI (OVCAR-5 ovarian): > 100 µM
TGI (OVCAR-8 ovarian): > 100 µM
TGI (PC-3 prostate): > 100 µM
TGI (RPMI-8226 leukemia): > 100 µM
TGI (RXF 393 renal): > 100 µM
TGI (SF-268 CNS): > 100 µM
TGI (SF-295 CNS): > 100 µM
TGI (SF-539 CNS): > 100 µM
TGI (SK-MEL-2 melanoma): > 100 µM
TGI (SK-MEL-28 melanoma): > 100 µM
TGI (SK-MEL-5 melanoma): > 100 µM
TGI (SK-OV-3 ovarian): > 100 µM
TGI (SN12C renal): > 100 µM
TGI (SNB-19 CNS): > 100 µM
TGI (SNB-75 CNS): 73.7 µM
TGI (SR leukemia): > 100 µM
TGI (SW-620 colon): > 100 µM
TGI (T-47D breast): 98.8 µM
TGI (TK-10 renal): > 100 µM
TGI (U251 CNS): > 100 µM
TGI (UACC-257 melanoma): 67.3 µM
TGI (UACC-62 melanoma): 68.8 µM
TGI (UO-31 renal): 89.6 µM
